From ChEMBL document CHEMBL1158598, “5-ureidobenzofuranone indoles as potent and efficacious inhibitors of PI3 kinase-alpha and mTOR for the treatment of breast cancer” (Bioorg Med Chem Lett, 2010)
Converted amounts (≈) assume the structure as drawn. The source made the active and inactive calls. The rule behind the calls is not given here.

Assays:
MDA-MB-361 [1] = test: Cytotoxicity against human MDA-MB-361 cells; assay type: functional, cell-based
[2] = target: Serine/threonine-protein kinase mTOR (Homo sapiens, UniProt P42345); test: Inhibition of mTOR
[3] = Cytotoxicity against human PC3MM2 cells; assay type: functional, cell-based
[4] = target: Phosphatidylinositol 4,5-bisphosphate 3-kinase catalytic subunit alpha isoform (Homo sapiens, UniProt P42336); test: Inhibition of PI3Kalpha
[5] = Half life in mouse microsome; assay type: ADME; conditions: microsomes
[6] = test system: Phosphatidylinositol 4,5-bisphosphate 3-kinase catalytic subunit alpha isoform (Homo sapiens), P42336 [H1047R]; test: Inhibition of PI3Kalpha H1047R mutant
[7] = target: Phosphatidylinositol 4,5-bisphosphate 3-kinase catalytic subunit beta isoform (Homo sapiens, UniProt P42338); test: Inhibition of PI3Kbeta
[8] = test system: Phosphatidylinositol 4,5-bisphosphate 3-kinase catalytic subunit alpha isoform (Homo sapiens), P42336 [E545K]; test: Inhibition of PI3Kalpha E545K mutant
[9] = Half life in rat microsome; assay type: ADME; conditions: microsomes
[10] = target: T1, Phosphatidylinositol 4,5-bisphosphate 3-kinase catalytic subunit delta isoform (Homo sapiens, UniProt O00329); test: Inhibition of PI3delta
T1 sequence (O00329 whole entry): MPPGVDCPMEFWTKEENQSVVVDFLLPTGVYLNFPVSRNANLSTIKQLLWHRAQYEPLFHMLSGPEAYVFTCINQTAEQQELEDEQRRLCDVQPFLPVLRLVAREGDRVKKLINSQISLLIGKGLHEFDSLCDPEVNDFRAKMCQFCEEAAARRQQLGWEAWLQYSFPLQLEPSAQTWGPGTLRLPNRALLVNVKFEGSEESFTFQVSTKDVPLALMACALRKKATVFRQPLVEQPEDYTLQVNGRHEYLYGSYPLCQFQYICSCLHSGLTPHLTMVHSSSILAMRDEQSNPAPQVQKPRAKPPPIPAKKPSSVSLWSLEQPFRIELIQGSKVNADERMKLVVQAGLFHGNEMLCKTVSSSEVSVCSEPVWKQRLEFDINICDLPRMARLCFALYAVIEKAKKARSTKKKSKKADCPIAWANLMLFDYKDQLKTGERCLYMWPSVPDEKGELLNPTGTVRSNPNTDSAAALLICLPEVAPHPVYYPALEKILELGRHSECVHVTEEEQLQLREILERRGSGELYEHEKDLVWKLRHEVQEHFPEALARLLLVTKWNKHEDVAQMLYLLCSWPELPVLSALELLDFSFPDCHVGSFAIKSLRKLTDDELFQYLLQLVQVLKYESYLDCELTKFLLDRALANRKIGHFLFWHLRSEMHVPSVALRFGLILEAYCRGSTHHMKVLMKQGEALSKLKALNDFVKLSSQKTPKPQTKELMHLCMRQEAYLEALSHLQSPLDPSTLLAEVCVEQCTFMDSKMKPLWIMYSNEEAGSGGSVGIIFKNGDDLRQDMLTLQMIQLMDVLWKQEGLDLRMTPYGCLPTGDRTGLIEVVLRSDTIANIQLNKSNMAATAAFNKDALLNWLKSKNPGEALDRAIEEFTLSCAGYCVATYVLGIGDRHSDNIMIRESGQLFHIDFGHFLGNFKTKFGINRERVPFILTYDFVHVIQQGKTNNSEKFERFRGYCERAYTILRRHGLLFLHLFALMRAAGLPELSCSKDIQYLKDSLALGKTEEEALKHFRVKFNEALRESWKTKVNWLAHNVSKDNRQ

[11] = Permeability from apical to basolateral side of the human Caco-2 membrane; assay type: ADME, cell-based; conditions: read-out: permeability
MDA-MB-361 [12] = test: Antitumor activity against human MDA-MB-361 cells xenografted in mouse assessed as reduction in tumor size at 25 mg/kg, iv after 1 to 9 days; assay type: functional, organism-based; design: dose 25 mg/kg
[13] = Half life in human microsome; assay type: ADME; conditions: microsomes
[14] = Solubility at pH 7.4; assay type: physicochemical; conditions: buffer
Mus musculus [15] = test: Inhibition of AKT-T308 phosphorylation in nude mouse at 25 mg/kg, iv after 8 hrs; assay type: functional, organism-based; design: dose 25 mg/kg
[16] = Permeability from basolateral to apical side of the human Caco-2 membrane; assay type: ADME, cell-based; conditions: read-out: permeability
Mus musculus [17] = test: Inhibition of AKT-PS6 phosphorylation in nude mouse at 25 mg/kg, iv after 8 hrs; assay type: functional, organism-based; design: dose 25 mg/kg
[18] = target: Phosphatidylinositol 4,5-bisphosphate 3-kinase catalytic subunit gamma isoform (Homo sapiens, UniProt P48736); test: Inhibition of PI3gamma
Mus musculus [19] = test: Inhibition of AKT-S473 phosphorylation in nude mouse at 25 mg/kg, iv after 8 hrs; assay type: functional, organism-based; design: dose 25 mg/kg
Mus musculus [20] = test: Inhibition of AKT-P70S6K phosphorylation in nude mouse at 25 mg/kg, iv after 8 hrs; assay type: functional, organism-based; design: dose 25 mg/kg

Phosphatidylinositol 4,5-bisphosphate 3-kinase catalytic subunit alpha isoform, sequence (P42336 whole entry, canonical isoform): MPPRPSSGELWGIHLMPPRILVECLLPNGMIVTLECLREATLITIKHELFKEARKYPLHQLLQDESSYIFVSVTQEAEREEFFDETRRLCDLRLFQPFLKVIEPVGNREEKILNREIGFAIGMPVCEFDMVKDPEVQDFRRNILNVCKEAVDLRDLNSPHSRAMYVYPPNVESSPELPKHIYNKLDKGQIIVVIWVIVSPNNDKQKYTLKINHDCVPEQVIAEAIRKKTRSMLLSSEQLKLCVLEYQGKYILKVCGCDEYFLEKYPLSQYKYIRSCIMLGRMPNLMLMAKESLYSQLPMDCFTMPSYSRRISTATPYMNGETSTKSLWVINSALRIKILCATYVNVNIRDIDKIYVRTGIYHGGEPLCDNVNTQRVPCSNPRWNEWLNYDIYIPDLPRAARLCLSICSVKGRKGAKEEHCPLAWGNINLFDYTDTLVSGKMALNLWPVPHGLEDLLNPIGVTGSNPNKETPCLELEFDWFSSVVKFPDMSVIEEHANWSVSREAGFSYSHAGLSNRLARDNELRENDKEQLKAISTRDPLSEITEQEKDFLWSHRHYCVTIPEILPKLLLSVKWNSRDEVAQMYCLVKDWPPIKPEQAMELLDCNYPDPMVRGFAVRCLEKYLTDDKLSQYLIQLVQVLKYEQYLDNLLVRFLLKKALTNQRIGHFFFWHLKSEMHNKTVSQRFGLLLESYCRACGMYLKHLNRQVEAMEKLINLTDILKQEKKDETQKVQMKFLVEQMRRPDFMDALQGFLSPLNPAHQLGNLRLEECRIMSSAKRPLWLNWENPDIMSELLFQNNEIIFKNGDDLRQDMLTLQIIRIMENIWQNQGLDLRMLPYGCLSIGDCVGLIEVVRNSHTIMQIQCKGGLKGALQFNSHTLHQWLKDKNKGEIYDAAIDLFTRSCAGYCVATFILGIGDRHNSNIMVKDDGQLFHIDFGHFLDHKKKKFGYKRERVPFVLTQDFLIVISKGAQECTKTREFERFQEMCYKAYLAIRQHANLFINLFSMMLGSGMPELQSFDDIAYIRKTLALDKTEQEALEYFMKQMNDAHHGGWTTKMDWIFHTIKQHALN
Phosphatidylinositol 4,5-bisphosphate 3-kinase catalytic subunit beta isoform, sequence (P42338 whole entry, canonical isoform): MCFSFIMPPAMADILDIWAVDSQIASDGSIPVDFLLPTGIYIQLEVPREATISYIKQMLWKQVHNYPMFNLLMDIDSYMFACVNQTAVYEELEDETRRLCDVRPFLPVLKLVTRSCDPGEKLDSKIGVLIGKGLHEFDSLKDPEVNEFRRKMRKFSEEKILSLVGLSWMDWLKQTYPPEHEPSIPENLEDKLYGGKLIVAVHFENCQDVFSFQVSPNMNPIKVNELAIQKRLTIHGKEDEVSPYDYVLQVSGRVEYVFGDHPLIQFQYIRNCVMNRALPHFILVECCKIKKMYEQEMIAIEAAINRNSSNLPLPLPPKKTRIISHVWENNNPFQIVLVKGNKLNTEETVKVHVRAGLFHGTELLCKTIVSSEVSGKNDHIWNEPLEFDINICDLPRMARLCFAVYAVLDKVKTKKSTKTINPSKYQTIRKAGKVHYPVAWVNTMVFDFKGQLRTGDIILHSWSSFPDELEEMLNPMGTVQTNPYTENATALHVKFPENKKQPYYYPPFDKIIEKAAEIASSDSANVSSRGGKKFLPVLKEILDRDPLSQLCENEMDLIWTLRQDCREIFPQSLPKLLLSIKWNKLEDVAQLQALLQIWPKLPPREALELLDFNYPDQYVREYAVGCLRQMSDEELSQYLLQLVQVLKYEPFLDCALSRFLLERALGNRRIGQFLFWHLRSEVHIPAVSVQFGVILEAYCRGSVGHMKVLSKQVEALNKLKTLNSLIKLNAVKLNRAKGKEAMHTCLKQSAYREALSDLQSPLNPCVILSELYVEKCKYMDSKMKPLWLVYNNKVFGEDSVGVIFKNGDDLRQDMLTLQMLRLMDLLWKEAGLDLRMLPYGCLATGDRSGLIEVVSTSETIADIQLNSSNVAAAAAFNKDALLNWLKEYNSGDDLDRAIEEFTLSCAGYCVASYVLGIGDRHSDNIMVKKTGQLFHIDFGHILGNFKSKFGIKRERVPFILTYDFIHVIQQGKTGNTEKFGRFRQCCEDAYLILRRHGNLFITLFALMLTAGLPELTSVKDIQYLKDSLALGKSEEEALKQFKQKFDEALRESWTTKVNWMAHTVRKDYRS
Phosphatidylinositol 4,5-bisphosphate 3-kinase catalytic subunit alpha isoform (Homo sapiens), P42336 [E545K], sequence (P42336 whole entry E545K, canonical isoform): as the sequence (P42336 whole entry, canonical isoform) above, with E545K counted along it
Phosphatidylinositol 4,5-bisphosphate 3-kinase catalytic subunit gamma isoform, sequence (P48736 whole entry, canonical isoform): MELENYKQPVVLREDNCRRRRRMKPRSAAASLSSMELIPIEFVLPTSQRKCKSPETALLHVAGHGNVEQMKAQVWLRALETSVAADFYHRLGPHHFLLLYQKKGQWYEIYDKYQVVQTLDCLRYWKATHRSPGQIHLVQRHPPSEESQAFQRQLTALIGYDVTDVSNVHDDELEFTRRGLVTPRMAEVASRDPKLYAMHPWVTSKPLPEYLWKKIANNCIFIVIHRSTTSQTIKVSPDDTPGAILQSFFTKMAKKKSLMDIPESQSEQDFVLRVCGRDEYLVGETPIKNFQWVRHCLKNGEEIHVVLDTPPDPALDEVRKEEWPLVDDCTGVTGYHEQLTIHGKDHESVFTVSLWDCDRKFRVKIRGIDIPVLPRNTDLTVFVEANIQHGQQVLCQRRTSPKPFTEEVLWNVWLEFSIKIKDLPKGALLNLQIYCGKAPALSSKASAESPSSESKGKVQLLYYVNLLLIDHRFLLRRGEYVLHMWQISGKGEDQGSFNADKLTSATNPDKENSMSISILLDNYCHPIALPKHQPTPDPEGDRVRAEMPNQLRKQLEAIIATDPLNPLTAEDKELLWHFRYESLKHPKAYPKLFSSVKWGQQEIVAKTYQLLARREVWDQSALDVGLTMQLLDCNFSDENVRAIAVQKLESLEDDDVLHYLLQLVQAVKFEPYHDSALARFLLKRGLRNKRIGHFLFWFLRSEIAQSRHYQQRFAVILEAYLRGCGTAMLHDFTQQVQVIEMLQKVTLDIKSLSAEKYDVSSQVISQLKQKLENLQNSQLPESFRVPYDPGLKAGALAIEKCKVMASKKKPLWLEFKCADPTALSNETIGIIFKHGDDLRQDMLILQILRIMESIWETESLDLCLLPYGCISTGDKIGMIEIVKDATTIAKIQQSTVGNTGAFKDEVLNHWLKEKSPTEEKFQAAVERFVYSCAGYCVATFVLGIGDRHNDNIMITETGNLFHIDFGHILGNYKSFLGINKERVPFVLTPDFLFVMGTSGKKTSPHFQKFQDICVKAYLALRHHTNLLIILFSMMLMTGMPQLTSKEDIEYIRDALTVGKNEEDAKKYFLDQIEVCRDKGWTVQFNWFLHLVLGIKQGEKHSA
Phosphatidylinositol 4,5-bisphosphate 3-kinase catalytic subunit alpha isoform (Homo sapiens), P42336 [H1047R], sequence (P42336 whole entry H1047R, canonical isoform): as the sequence (P42336 whole entry, canonical isoform) above, with H1047R counted along it

SMILES	IC50 [2] [nM]	IC50 [4] [nM]	IC50 (MDA-MB-361 [1]) [nM]	IC50 [3] [nM]	other results
COc1ccc2[nH]c(-c3c(C)nn(C)c3C)c(/C=C3/Oc4ccc(NC(=O)Nc5ccc(C(=O)N6CCN(C)CC6)cc5)cc4C3=O)c2c1	3.8	0.2	8	131	
COc1ccc2[nH]c(-c3c(C)nn(C)c3C)c(/C=C3/Oc4ccc(NC(=O)Nc5ccc(C(=O)N6CCOCC6)cc5)cc4C3=O)c2c1	4.2	0.2	6	94	
COc1ccc2[nH]c(-c3c(C)nn(C)c3C)c(/C=C3/Oc4ccc(NC(=O)Nc5cccnc5)cc4C3=O)c2c1	5.2	0.5	76	> 10000	
COc1ccc2[nH]cc(/C=C3/Oc4ccc(NC(=O)Nc5ccc(C(=O)N6CCN(C)CC6)cc5)cc4C3=O)c2c1	> 4000	0.9	> 1000	> 1000	

Stronger by IC50 [2], values ahead:

IC50 [2] [nM]	IC50 [4] [nM]	SMILES	IC50 (MDA-MB-361 [1]) [nM]	IC50 [3] [nM]	other results
2.5	0.5	COc1cc(F)c2[nH]c(-c3c(C)nn(C)c3C)c(/C=C3/Oc4ccc(NC(=O)Nc5ccc(C(=O)N6CCOCC6)cc5)cc4C3=O)c2c1	6	57	
2.4	0.4	CNC(=O)Nc1ccc2c(c1)C(=O)/C(=C\c1c(-c3c(C)nn(C)c3C)[nH]c3c(F)cc(OC)cc13)O2	20	62	
1.5	1	COc1cc(F)c2[nH]c(-c3c(C)nn(C)c3C)c(/C=C3/Oc4ccc(NC(=O)Nc5cccnc5)cc4C3=O)c2c1	39	> 1000	
1.3	0.4	CNC(=O)Nc1ccc2c(c1)C(=O)/C(=C\c1c(-c3c(C)nn(C)c3C)[nH]c3ccc(OC)cc13)O2	36	130	
1.1	0.3	COc1ccc2[nH]c(-c3c(C)nn(C)c3C)c(/C=C3/Oc4ccc(NC(=O)Nc5ccc(C(=O)N(C)CCN(C)C)cc5)cc4C3=O)c2c1	< 3	23	
0.3	0.2	COc1cc(F)c2[nH]c(-c3c(C)nn(C)c3C)c(/C=C3/Oc4ccc(NC(=O)Nc5ccc(C(=O)N(C)CCN(C)C)cc5)cc4C3=O)c2c1	< 3	10	half-life [5]: > 30 min; INH [6]: 0.5 nM; IC50 [7]: 0.7 nM; IC50 [8]: 0.3 nM; half-life [9]: > 30 min; IC50 [10]: 0.6 nM; Papp A→B [11]: 0.3 ×10⁻⁶ cm/s; Activity (MDA-MB-361 [12]): Active; half-life [13]: > 30 min; solubility [14]: 1 µg/mL (≈ 1.47 µM); inhibition (Mus musculus [15]): Active; Papp B→A [16]: 0.3 ×10⁻⁶ cm/s; inhibition (Mus musculus [17]): Active; IC50 [18]: 2.4 nM; inhibition (Mus musculus [19]): Active; inhibition (Mus musculus [20]): Active
